{"source": "patent US7709444B2", "about": "“Echinocandin pharmaceutical formulations containing micelle-forming surfactants” (Pfizer Inc., priority 1999, dated 2010)", "key": {"[1]": {"assay": "Stability of freeze-dried formulations, related substances by reverse phase HPLC, storage at 40° C.", "type": "physicochemical", "method": "The stability of solution and freeze-dried formulations was evaluated by monitoring a sample of the formulation for the percent increase in related substances by reverse phase HPLC at initial, 2 weeks and 4 weeks of storage at 40° C."}, "[2]": {"assay": "Solubility studies of Com 6(a) in surfactant test solutions, reverse phase HPLC", "type": "physicochemical", "settings": "room temperature", "method": "Solubility studies were performed at room temperature by transferring 5 ml of test solution (surfactant in water optionally containing a bulking agent, a buffer or a stabilizing agent) and 50 mg of Com 6(a) into a glass test tube. The test tubes were agitated overnight and examined for excess solid. Test tubes containing excess solid were removed for analysis. […] All samples were allowed to stand 1 h, supernatant was removed, filtered and analyzed by reverse phase HPLC to determine the potency of Com 6(a) per Ml of solution."}}, "note": "*1 amine or outer side, *2 acyl side, *3 side chain or, on linkers, in order; H or OH if unused. Where a SMILES comes first, the peptide text is derived from it. Bridges are numbered along the chain shown (N, C = ends). [ ]: non-standard residue; d: D form. The star is where a group is joined. ξ: configuration not given here. pTerphenylCO(4''-OnC5H11) = CCCCCOc1ccc(-c2ccc(-c3ccc(C(=O)*)cc3)cc2)cc1; ξOrn(4,5-diOH) = O=C(C(CC(O)C(O)N[*:3])N[*:1])[*:2]; ξhTyr(βξ-OH,γξ-OH) = NC(C(=O)O)C(O)C(O)c1ccc(O)cc1; ξPro(3ξ-OH,4ξ-Me) = CC1CNC(C(=O)O)C1O; Hyp = O=C(O)[CH]1C[CH](O)CN1"}
{"smiles": "CCCCCOc1ccc(-c2ccc(-c3ccc(C(=O)NC4CC(O)C(O)NC(=O)C5C(O)C(C)CN5C(=O)C(C(C)O)NC(=O)C(C(O)C(O)c5ccc(O)cc5)NC(=O)C5CC(O)CN5C(=O)C(C(C)O)NC4=O)cc3)cc2)cc1", "note": "(stereo not drawn) [Compound 6(a)] ({pTerphenylCO(4''-OnC5H11)}-[ξOrn(4,5-diOH)]T[Hyp][ξhTyr(βξ-OH,γξ-OH)]T[ξPro(3ξ-OH,4ξ-Me)]; lactam 1-C; configuration not given here)", "values": [{"measurement": "% Related Substances", "setting": "[1]; 6(a) Potency 1, Poly 80(25), Cit(1.9), Man(50), 0 wks", "result": 3.22, "unit": "%"}, {"measurement": "% Related Substances", "setting": "[1]; 6(a) Potency 1, Poly 80(25), Cit(1.9), Man(50), 2 wks", "result": 10.24, "unit": "%"}, {"measurement": "% Related Substances", "setting": "[1]; 6(a) Potency 1, Poly 80(25), Cit(1.9), Man(50), 4 wks", "result": 12.16, "unit": "%"}, {"measurement": "% Related Substances", "setting": "[1]; 6(a) Potency 1, Poly 80(25), Cit(9.6), Man(50), 0 wks", "result": 3.36, "unit": "%"}, {"measurement": "% Related Substances", "setting": "[1]; 6(a) Potency 1, Poly 80(25), Cit(9.6), Man(50), 2 wks", "result": 11.74, "unit": "%"}, {"measurement": "% Related Substances", "setting": "[1]; 6(a) Potency 1, Poly 80(25), Cit(9.6), Man(50), 4 wks", "result": 18.63, "unit": "%"}, {"measurement": "% Related Substances", "setting": "[1]; 6(a) Potency 1, Poly 80(25), Cit(19.2), Man(50), 0 wks", "result": 3.37, "unit": "%"}, {"measurement": "% Related Substances", "setting": "[1]; 6(a) Potency 1, Poly 80(25), Cit(19.2), Man(50), 2 wks", "result": 17.29, "unit": "%"}, {"measurement": "% Related Substances", "setting": "[1]; 6(a) Potency 1, Poly 80(25), Cit(19.2), Man(50), 4 wks", "result": 22.61, "unit": "%"}, {"measurement": "% Related Substances", "setting": "[1]; 6(a) Potency 5, Poly 80(12.5), no B, Lac(10), Man(50), 0 wks", "result": 6.42, "unit": "%"}, {"measurement": "% Related Substances", "setting": "[1]; 6(a) Potency 5, Poly 80(12.5), no B, Lac(10), Man(50), 2 wks", "result": 6.98, "unit": "%"}, {"measurement": "% Related Substances", "setting": "[1]; 6(a) Potency 5, Poly 80(12.5), no B, Lac(10), Man(50), 4 wks", "result": 6.85, "unit": "%"}, {"measurement": "% Related Substances", "setting": "[1]; 6(a) Potency 8, Poly 80 (20), no B, Lac(10), Man(50), 0 wks", "result": 5.99, "unit": "%"}, {"measurement": "% Related Substances", "setting": "[1]; 6(a) Potency 8, Poly 80 (20), no B, Lac(10), Man(50), 2 wks", "result": 6.16, "unit": "%"}, {"measurement": "% Related Substances", "setting": "[1]; 6(a) Potency 8, Poly 80 (20), no B, Lac(10), Man(50), 4 wks", "result": 5.74, "unit": "%"}, {"measurement": "% Related Substances", "setting": "[1]; 6(a) Potency 10, Poly 80(25), Cit(9.6), Suc(5), Man(50), 0 wks", "result": 3.70, "unit": "%"}, {"measurement": "% Related Substances", "setting": "[1]; 6(a) Potency 10, Poly 80(25), Cit(9.6), Suc(5), Man(50), 2 wks", "result": 5.60, "unit": "%"}, {"measurement": "% Related Substances", "setting": "[1]; 6(a) Potency 10, Poly 80(25), Cit(9.6), Suc(5), Man(50), 4 wks", "result": 6.01, "unit": "%"}, {"measurement": "% Related Substances", "setting": "[1]; 6(a) Potency 10, Poly 80(25), Cit(9.6), Suc(10), Man(50), 0 wks", "result": 3.77, "unit": "%"}, {"measurement": "% Related Substances", "setting": "[1]; 6(a) Potency 10, Poly 80(25), Cit(9.6), Suc(10), Man(50), 2 wks", "result": 5.41, "unit": "%"}, {"measurement": "% Related Substances", "setting": "[1]; 6(a) Potency 10, Poly 80(25), Cit(9.6), Suc(10), Man(50), 4 wks", "result": 5.88, "unit": "%"}, {"measurement": "% Related Substances", "setting": "[1]; 6(a) Potency 10, Poly 80(25), Cit(9.6), Suc(50), no BA, 0 wks", "result": 3.60, "unit": "%"}, {"measurement": "% Related Substances", "setting": "[1]; 6(a) Potency 10, Poly 80(25), Cit(9.6), Suc(50), no BA, 2 wks", "result": 5.4, "unit": "%"}, {"measurement": "% Related Substances", "setting": "[1]; 6(a) Potency 10, Poly 80(25), Cit(9.6), Suc(50), no BA, 4 wks", "result": 6.01, "unit": "%"}, {"measurement": "% Related Substances", "setting": "[1]; 6(a) Potency 10, Poly 80(25), Cit(9.6), Tre(50), no BA, 0 wks", "result": 3.73, "unit": "%"}, {"measurement": "% Related Substances", "setting": "[1]; 6(a) Potency 10, Poly 80(25), Cit(9.6), Tre(50), no BA, 2 wks", "result": 4.83, "unit": "%"}, {"measurement": "% Related Substances", "setting": "[1]; 6(a) Potency 10, Poly 80(25), Cit(9.6), Tre(50), no BA, 4 wks", "result": 6.19, "unit": "%"}, {"measurement": "% Related Substances", "setting": "[1]; 6(a) Potency 10, Poly 80(25), Tar(1.13), Fru(10), Man(50), 0 wks", "result": 2.49, "unit": "%"}, {"measurement": "% Related Substances", "setting": "[1]; 6(a) Potency 10, Poly 80(25), Tar(1.13), Fru(10), Man(50), 4 wks", "result": 2.42, "unit": "%"}, {"measurement": "% Related Substances", "setting": "[1]; 6(a) Potency 10, Poly 80(25), no B, Lac(10), Man(50) (first of two identical lines), 0 wks", "result": 4.56, "unit": "%"}, {"measurement": "% Related Substances", "setting": "[1]; 6(a) Potency 10, Poly 80(25), no B, Lac(10), Man(50) (first of two identical lines), 2 wks", "result": 4.51, "unit": "%"}, {"measurement": "% Related Substances", "setting": "[1]; 6(a) Potency 10, Poly 80(25), no B, Lac(10), Man(50) (first of two identical lines), 4 wks", "result": 4.85, "unit": "%"}, {"measurement": "% Related Substances", "setting": "[1]; 6(a) Potency 10, Poly 80(25), no B, Lac(10), Man(50) (second of two identical lines), 0 wks", "result": 4.06, "unit": "%"}, {"measurement": "% Related Substances", "setting": "[1]; 6(a) Potency 10, Poly 80(25), no B, Lac(10), Man(50) (second of two identical lines), 2 wks", "result": 5.47, "unit": "%"}, {"measurement": "% Related Substances", "setting": "[1]; 6(a) Potency 10, Poly 80(25), no B, Lac(10), Man(50) (second of two identical lines), 4 wks", "result": 5.17, "unit": "%"}, {"measurement": "% Related Substances", "setting": "[1]; 6(a) Potency 10, Poly 80(25), no B, PEG6000(10), Man(50), 0 wks", "result": 4.13, "unit": "%"}, {"measurement": "% Related Substances", "setting": "[1]; 6(a) Potency 10, Poly 80(25), no B, PEG6000(10), Man(50), 2 wks", "result": 4.47, "unit": "%"}, {"measurement": "% Related Substances", "setting": "[1]; 6(a) Potency 10, Poly 80(25), no B, PEG6000(10), Man(50), 4 wks", "result": 8.11, "unit": "%"}, {"measurement": "% Related Substances", "setting": "[1]; 6(a) Potency 10, Poly 80(25), no B, PEG8000(10), Man(50), 0 wks", "result": 3.97, "unit": "%"}, {"measurement": "% Related Substances", "setting": "[1]; 6(a) Potency 10, Poly 80(25), no B, PEG8000(10), Man(50), 2 wks", "result": 4.23, "unit": "%"}, {"measurement": "% Related Substances", "setting": "[1]; 6(a) Potency 10, Poly 80(25), no B, PEG8000(10), Man(50), 4 wks", "result": 6.73, "unit": "%"}, {"measurement": "% Related Substances", "setting": "[1]; 6(a) Potency 10, Poly 80(25), no B, Suc(10), Man(50), 0 wks", "result": 4.26, "unit": "%"}, {"measurement": "% Related Substances", "setting": "[1]; 6(a) Potency 10, Poly 80(25), no B, Suc(10), Man(50), 2 wks", "result": 4.82, "unit": "%"}, {"measurement": "% Related Substances", "setting": "[1]; 6(a) Potency 10, Poly 80(25), no B, Suc(10), Man(50), 4 wks", "result": 4.49, "unit": "%"}, {"measurement": "% Related Substances", "setting": "[1]; 6(a) Potency 10, Poly 80(25), no B, no SA, Man(50), 0 wks", "result": 3.98, "unit": "%"}, {"measurement": "% Related Substances", "setting": "[1]; 6(a) Potency 10, Poly 80(25), no B, no SA, Man(50), 2 wks", "result": 4.85, "unit": "%"}, {"measurement": "% Related Substances", "setting": "[1]; 6(a) Potency 10, Poly 80(25), no B, no SA, Man(50), 4 wks", "result": 5.45, "unit": "%"}, {"measurement": "Comp6(a) Potency (solubility)", "setting": "[2]; Poly 20 [5]/Poly 80 [5]", "result": 4.8, "unit": "mg/mL"}, {"measurement": "Comp6(a) Potency (solubility)", "setting": "[2]; Poly 20 [5]/Poly 80 [10]", "result": 8.0, "unit": "mg/mL"}, {"measurement": "Comp6(a) Potency (solubility)", "setting": "[2]; Poly 20 [5]/pluronic F68 [10]", "result": 1.13, "unit": "mg/mL"}, {"measurement": "Comp6(a) Potency (solubility)", "setting": "[2]; Poly 80 [5]", "result": 1, "unit": "mg/mL"}, {"measurement": "Comp6(a) Potency (solubility)", "setting": "[2]; Poly 80 [10]", "result": 4.4, "unit": "mg/mL"}, {"measurement": "Comp6(a) Potency (solubility)", "setting": "[2]; Poly 80 [15]", "result": 7.2, "unit": "mg/mL"}, {"measurement": "Comp6(a) Potency (solubility)", "setting": "[2]; Poly 80 [20]/sodium taurodeoxycholate [20]", "result": 43.12, "unit": "mg/mL"}, {"measurement": "Comp6(a) Potency (solubility)", "setting": "[2]; Poly 80 [25]", "result": 13.2, "unit": "mg/mL"}]}
